Common to all, as to format: functional
Test [1] relates to Schistocerca gregaria. The experiment in a line: Tested for tissue (foreguts isolated from Schistocerca gregaria) contraction response; No activity.
Test [2] relates to Schistocerca gregaria. The experiment in a line: Tested for tissue (foreguts isolated from Schistocerca gregaria) contraction response at 2 uM.
The subject of test [3] is Schistocerca gregaria. The experiment in a line: Tested for tissue (foreguts isolated from Schistocerca gregaria) contraction response at 80 uM.
In test [4] the test system is Schistocerca gregaria. The experiment in a line: Tested for contraction Schistocerca gregaria gut at concentrations ranging from 10 nM to 5 uM and maximum response concentration reported.

The structures appear in SMILES notation. Square brackets hold non-standard residues; d marks the D form. Peptide text beside a SMILES is read from it. NMeT = CN[C@H](C(=O)O)[C@@H](C)O; NMeL = CN[C@@H](CC(C)C)C(=O)O

Take `CC(C)C[C@@H](NC(=O)[C@@H](Cc1ccc(O)cc1)N(C)C(=O)[C@@H](N)CCCN=C(N)N)C(=O)N1CCC[C@@H]1C(=O)N[C@H](C(=O)O)[C@H](C)O`: the Activity result with Schistocerca gregaria [1] was “No activity”.
In the case of `CC(C)C[C@H](NC(=O)[C@H](Cc1ccc(O)cc1)NC(=O)[C@@H](N)CCCN=C(N)N)C(=O)N1CCC[C@H]1C(=O)N(C)[C@H](C(=O)O)[C@@H](C)O` (H-RYLP[NMeT]-OH), the Max contraction in the test with Schistocerca gregaria [2] is on record as 78%.
In turn, `CC(C)C[C@@H](C(=O)N1CCC[C@H]1C(=O)N[C@H](C(=O)O)[C@@H](C)O)N(C)C(=O)[C@H](Cc1ccc(O)cc1)NC(=O)[C@@H](N)CCCN=C(N)N` (H-RY[NMeL]PT-OH) gave a Max contraction in the test with Schistocerca gregaria [3] of 52%.
In the test on Schistocerca gregaria [4], `CC(C)C[C@@H](NC(=O)[C@@H](Cc1ccc(O)cc1)NC(=O)[C@@H](N)CCCN=C(N)N)C(=O)N1CCC[C@@H]1C(=O)N[C@H](C(=O)O)[C@H](C)O` had a Concentration of 1 µM.

For the origin of these results see ChEMBL document CHEMBL1128614, “Proctolin and related N-methylated pentapeptides selectively contract locust foregut but not rat ileum” (1995).
